From publication PMC9551036, “A selective and orally bioavailable VHL-recruiting PROTAC achieves SMARCA2 degradation in vivo” (Nature Communications, 2022)
Where “and” joins values, the source holds several entries; their conditions need not be identical. Identical values can stand only once. Like-named read-outs stand apart in the source and are kept apart here.

Experiments:
SMARCA4 = SMARCA4 (Homo sapiens, UniProt P51532); test: Imaging-based SMARCA4 protein assay in RKO cells; assay type: cell-based; set-up: endogenous in cells; host or cells: RKO, HCT116, LU99, HCC-364, HCT-15, HCC4006, SK-N-AS; conditions: individual replicates
Procedure: 1250 cells per well in 60 µl medium were plated in flat bottom, poly-lysin coated 384-well plates (CellCarrier Ultra, Perkin Elmer). The next day, test compounds (10 µl of serial dilutions) and DMSO controls were diluted in DMEM medium such that the final DMSO content was <1% or were added using an ultrasound dispensing system. 4 wells were reserved for a background measurement. […] After aspirating the fixing solution, the cells were washed once with 25 µl PBS. 25 µl of blocking buffer (10% goat serum in PBS) was added and cells were incubated for 30 min, then washed once with PBS. Cells were stained with 20 µl of SMARCA2/4 primary antibody solution (Sigma #HPA029981 RRID:AB_10602406 1:1000 or Cell Signalling #52251 clone E9O6 RRID:AB_2799410 1:1000 in PBS with 10% FCS) for 2–4 h at room temperature. Cells were again washed once with PBS. […] The cell layer was then washed once with 25 µl PBS, the wells were filled with 25 µl PBS and the plates were sealed with an adhesive sheet. They were then imaged on the Opera Phoenix (mean intensity in the nucleus). Results were computed as percent of controls ((value of test compound − background)/(value of the negative control DMSO—background) multiplied by 100). EC50 values were computed using a 4-parametric logistic model.

SMARCA4^BD = molecular target: T1, SMARCA4^BD (Homo sapiens, UniProt P51532); test: SPR binding to immobilised SMARCA4 bromodomain
T1 construct: P51532, residues 1448–1569 with additional N-terminal SM residues; GST (TEV site) (N, cleaved yes); made in house; host or cells: Escherichia coli BL21(DE3); construct from SGC Toronto
Procedure: SMARCA4^BD was provided by the Structural Genomics Consortium (SGC), Toronto[32] and SMARCA2^BD and PRM1^BD5 were synthesised by GeneArt then subcloned into pDEST15 vectors (Invitrogen). The VCB complex was expressed and purified as described previously, with the modification that 0.3 mM IPTG was used for induction of expression. […] Both were stored in 20 mM 4-(2-hydroxyethyl)−1-piperazineethanesulfonic acid (HEPES), 150 mM sodium chloride and 1 mM tris(2-carboxyethyl)phosphine (TCEP) pH 7.5. SMARCA2^BD, SMARCA4^BD and PBRM1^BD5 were expressed in Escherichia coli BL21(DE3) as N-terminal GST fusion proteins with a TEV protease cleavage site. Expression and purification of these proteins has been described previously[32],[33]. Starter cultures were grown overnight at 37 °C in 10 mL of Luria-Bertani (LB) medium with ampicillin (100 μg/mL). The starter cultures were diluted (1:100) in Terrific Broth (TB) medium with ampicillin (100 μg/mL) and grown in a shaking incubator at 37 °C to an optical density (OD600) ~1 before the temperature was lowered for induction (to 23 °C for SMARCA2^BD or 18 °C for SMARCA4^BD and PRRM1^BD5). […] Cells were harvested by centrifugation and stored at −80 °C prior to purification. Cells were resuspended in Lysis buffer and lysed by sonication (20 pulses of 5 s for 4 min) using a Sonopuls HD 3080 (Bandelin, Berlin, Germany) or by homogenisation using a Stansted Pressure Cell Homogeniser (Stansted Fluid Power). The Lysis buffers were as follows: for SMARCA2^BD: 50 mM HEPES, 500 mM sodium chloride, 5% glycerol, 5 mM dithiothreitol (DTT); for SMARCA4^BD: 25 mM HEPES, 0.3 M sodium chloride, 5% glycerol, 10 mM DTT, pH 7.5; for PBRM1^BD5: 25 mM HEPES, 300 mM sodium chloride, 5% glycerol, 10 mM DTT, pH 7.8; in each case supplemented with complete protease inhibitors (Roche). Affinity purification was performed using Glutathione Sepharose 4B (GE Healthcare) in batch mode or on-column. […] For SMARCA2^BD, prior to TEV protease cleavage the eluted GST-tagged BD was first dialysed into desalting buffer (20 mM HEPES, 250 mM sodium chloride, pH 7.0 + 0.5% glycerol). Where TEV cleavage was performed in solution, a second affinity (GST-trap) column purification step was carried out to remove the GST-tag and uncleaved GST-tagged protein. Proteins were further purified by SEC (HiLoad Superdex-75, 16/600) (GE Healthcare) and stored in Storage buffer (for SMARCA2^BD: 20 mM HEPES, 150 mM sodium chloride, pH 7.5; for SMARCA4^BD: 10 mM HEPES, 0.5 M NaCl, 5% glycerol, pH 7.5; for PBRM1^BD5: 20 mM HEPES, 300 mM NaCl, 5 mM DTT, pH 7.8). For AlphaScreen assays, eluted GST-tagged BDs were purified directly by SEC in the respective storage buffers without TEV cleavage. All chromatography purification steps were performed either at room temperature or 4 °C using an ÄKTA FPLC purification system (GE Healthcare) or a plastic Econo-Pac column (Bio-Rad).
SPR data were acquired on Biacore 8K or T200 instruments (Cytiva). Target proteins were immobilised at 25 °C on CM5 chips by amine coupling (EDC/NHS, Cytiva) in HBS-P+ running buffer (pH 7.4), containing 2 mM TCEP. After surface activation with EDC/NHS (contact time 420 s, flow rate 10 µl/min) SMARCA2^BD and SMARCA4^BD at 0.01–0.05 mg/ml in coupling buffer (10 mM Na-Acetate pH 6.5, 0.005% TWEEN 20 and 50 µM PFI-3[13]) were immobilised to a density of 100–5000 Response Units (RU). The reference surface was subsequently deactivated using 1 M ethanolamine. For VCB immobilisation, streptavidin (Sigma Aldrich, prepared at 1 mg/ml in 10 mM sodium acetate coupling buffer, pH 5.0) was immobilised by amine coupling to a density of 3000–5000 RU after which biotinylated VCB complex (0.125 mM in running buffer) was streptavidin-coupled to a density of 100–500 RU. Biotinylated VCB was prepared as previously described[27]: in brief, the complex was mixed 1:1 with EZ-Link NHS–PEG4–biotin (Thermo Scientific) and incubated at room temperature for 1 h.

[1] = 18h, read-out: RKO (18h) SMARCA4 DC50
[2] = 4h, read-out: RKO (4h) SMARCA4 DC50

Chain of SMARCA4 (P51532 whole entry): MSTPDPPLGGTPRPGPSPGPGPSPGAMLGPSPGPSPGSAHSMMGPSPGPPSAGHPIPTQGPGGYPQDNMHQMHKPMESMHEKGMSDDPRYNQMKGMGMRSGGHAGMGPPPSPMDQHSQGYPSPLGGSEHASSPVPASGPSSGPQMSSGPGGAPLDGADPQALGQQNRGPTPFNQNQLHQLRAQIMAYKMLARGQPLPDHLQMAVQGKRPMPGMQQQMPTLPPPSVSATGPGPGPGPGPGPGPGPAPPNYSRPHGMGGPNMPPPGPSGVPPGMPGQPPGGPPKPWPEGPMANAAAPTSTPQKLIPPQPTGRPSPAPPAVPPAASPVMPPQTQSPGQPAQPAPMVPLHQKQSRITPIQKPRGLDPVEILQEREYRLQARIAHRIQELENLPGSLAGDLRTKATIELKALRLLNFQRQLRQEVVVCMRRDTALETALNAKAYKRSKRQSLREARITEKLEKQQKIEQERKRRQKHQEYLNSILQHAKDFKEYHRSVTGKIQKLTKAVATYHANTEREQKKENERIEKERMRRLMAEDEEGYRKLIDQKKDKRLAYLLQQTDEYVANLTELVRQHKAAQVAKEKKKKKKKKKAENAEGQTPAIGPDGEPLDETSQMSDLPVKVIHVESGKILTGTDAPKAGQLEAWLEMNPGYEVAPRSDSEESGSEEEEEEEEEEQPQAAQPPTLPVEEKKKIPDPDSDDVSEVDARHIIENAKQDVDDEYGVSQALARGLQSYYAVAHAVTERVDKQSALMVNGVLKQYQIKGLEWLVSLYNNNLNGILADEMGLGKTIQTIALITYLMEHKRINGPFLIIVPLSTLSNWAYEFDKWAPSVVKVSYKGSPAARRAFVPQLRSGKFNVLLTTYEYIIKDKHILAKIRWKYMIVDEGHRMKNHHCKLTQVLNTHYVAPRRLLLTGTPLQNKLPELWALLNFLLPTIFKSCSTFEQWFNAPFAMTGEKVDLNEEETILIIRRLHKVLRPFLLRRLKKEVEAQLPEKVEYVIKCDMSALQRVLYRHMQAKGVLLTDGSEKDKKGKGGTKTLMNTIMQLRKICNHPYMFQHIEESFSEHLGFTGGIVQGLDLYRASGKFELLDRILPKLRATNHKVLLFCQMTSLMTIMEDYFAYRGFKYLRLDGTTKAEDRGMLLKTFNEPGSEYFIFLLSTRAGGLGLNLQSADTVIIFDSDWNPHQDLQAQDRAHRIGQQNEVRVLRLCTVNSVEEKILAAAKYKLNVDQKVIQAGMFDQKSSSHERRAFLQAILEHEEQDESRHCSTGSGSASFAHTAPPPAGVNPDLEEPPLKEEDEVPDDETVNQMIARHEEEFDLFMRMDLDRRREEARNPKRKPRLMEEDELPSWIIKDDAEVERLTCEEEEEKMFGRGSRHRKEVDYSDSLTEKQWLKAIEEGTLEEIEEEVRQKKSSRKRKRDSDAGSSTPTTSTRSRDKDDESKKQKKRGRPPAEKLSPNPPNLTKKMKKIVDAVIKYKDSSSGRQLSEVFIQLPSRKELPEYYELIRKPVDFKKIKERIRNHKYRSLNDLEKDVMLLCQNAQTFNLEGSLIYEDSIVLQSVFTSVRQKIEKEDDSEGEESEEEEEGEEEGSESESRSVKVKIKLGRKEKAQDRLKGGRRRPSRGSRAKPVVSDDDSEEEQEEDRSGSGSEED
T1 sequence (P51532 1448-1569): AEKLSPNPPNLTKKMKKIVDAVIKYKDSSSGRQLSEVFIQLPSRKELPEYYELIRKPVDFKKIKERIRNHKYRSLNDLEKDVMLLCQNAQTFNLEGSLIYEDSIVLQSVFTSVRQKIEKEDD

Row | SMILES | DC50 (SMARCA4; [1]) | Kd (SMARCA4^BD; SMARCA4BD, mean ± SD) | Kd (SMARCA4^BD; individual replicates) | DC50 (SMARCA4; [2])
1 | Cc1ncsc1-c1ccc([C@H](COC(C)(C)CN2CCC(c3ccc4c(c3)n(C3CCCC3)c3nc(=O)c5c(Br)cccc5n43)CC2)NC(=O)[C@@H]2C[C@@H](O)CN2C(=O)[C@@H](NC(=O)C2(F)CC2)C(C)(C)C)cc1 [compound 28] | 101 nM and 200 nM (2×) and > 833 nM | 278 ± 14 nM | 267 nM and 293 nM and 274 nM | 
2 | Cc1ncsc1-c1ccc([C@H](CC[C@@H](C)CCN2CCC(c3ccc4c(c3)n(C3CCCC3)c3nc(=O)c5c(Br)cccc5n43)CC2)NC(=O)[C@@H]2C[C@@H](O)CN2C(=O)[C@@H](NC(=O)C2(F)CC2)C(C)(C)C)cc1 [compound 29] | 6.86 nM and 10.4 nM (2×) and 14.2 nM and 15.3 nM and 14 nM | 397 ± 49 nM | 347 nM and 400 nM | 11.1 nM and 13.5 nM and 12.4 nM and 24.9 nM
3 | Cc1ncsc1-c1ccc([C@H](CCC(C)(C)CCN2CCC(c3ccc4c(c3)n(C3CCCC3)c3nc(=O)c5c(Br)cccc5n43)CC2)NC(=O)[C@@H]2C[C@@H](O)CN2C(=O)[C@@H](NC(=O)C2(F)CC2)C(C)(C)C)cc1 [compound 30] |  | 579 ± 89 nM | 492 nM and 575 nM and 669 nM | > 25000 nM
